Experimental data taken from patent US11306092B2, “Amino indole compounds useful as TLR inhibitors” (BRISTOL-MYERS SQUIBB COMPANY, priority 2017, dated 2022).

What was measured:
Format in all cases: cell-based
human TLR7 = molecular target: T1, human TLR7 (Homo sapiens, UniProt Q9NYK1); assay: TLR7 inhibition reporter assay (HEK-Blue SEAP reporter); details: HEK-Blue cells overexpressing human TLR7; gardiquimod 7.5 μM; 22 hour incubation
T1 construct: host or cells: HEK-Blue cells
T1 sequence (Q9NYK1 27-1049): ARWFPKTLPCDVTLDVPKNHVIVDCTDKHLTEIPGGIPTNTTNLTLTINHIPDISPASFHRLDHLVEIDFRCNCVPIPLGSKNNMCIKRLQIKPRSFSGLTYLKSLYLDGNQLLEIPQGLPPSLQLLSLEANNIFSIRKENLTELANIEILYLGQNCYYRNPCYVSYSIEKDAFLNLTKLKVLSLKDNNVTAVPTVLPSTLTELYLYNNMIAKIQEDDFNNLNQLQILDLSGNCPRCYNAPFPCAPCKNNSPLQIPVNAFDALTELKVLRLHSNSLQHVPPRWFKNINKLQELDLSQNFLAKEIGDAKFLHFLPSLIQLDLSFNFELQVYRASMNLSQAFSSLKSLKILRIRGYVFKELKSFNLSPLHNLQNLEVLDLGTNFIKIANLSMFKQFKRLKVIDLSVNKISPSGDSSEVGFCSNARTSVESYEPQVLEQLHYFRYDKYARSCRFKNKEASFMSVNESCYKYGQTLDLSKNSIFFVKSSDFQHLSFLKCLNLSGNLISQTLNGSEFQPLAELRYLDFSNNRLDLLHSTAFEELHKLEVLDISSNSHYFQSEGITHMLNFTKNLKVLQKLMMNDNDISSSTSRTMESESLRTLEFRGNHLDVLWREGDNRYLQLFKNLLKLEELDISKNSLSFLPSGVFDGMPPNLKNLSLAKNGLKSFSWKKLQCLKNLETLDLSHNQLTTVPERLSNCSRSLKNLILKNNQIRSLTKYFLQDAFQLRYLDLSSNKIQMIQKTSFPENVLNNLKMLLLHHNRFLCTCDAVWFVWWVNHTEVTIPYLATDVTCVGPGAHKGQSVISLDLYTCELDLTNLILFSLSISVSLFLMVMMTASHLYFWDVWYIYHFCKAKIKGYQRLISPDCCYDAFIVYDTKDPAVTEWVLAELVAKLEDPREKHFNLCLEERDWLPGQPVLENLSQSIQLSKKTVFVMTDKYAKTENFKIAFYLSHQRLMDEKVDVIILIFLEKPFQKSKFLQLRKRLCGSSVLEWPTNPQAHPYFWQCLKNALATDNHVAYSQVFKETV
Procedure, shortened: (§1)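 HEK-Blue cells overexpressing human TLR7, TLR8 or TLR9 carry a SEAP reporter driven by NF-κB/AP-1 sites. Compounds (0.05 nM–50 μM) were preincubated 30 min at room temperature, then cells were stimulated with gardiquimod 7.5 μM (TLR7), R848 15.9 μM (TLR8) or ODN2006 5 nM (TLR9) for 22 h at 37 °C.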

human TLR8 = molecular target: T2, human TLR8 (Homo sapiens, UniProt Q9NR97); assay: TLR8 inhibition reporter assay (HEK-Blue SEAP reporter); details: HEK-Blue cells overexpressing human TLR8; R848 15.9 μM; 22 hour incubation
T2 construct: host or cells: HEK-Blue cells
T2 sequence (Q9NR97 27-1041): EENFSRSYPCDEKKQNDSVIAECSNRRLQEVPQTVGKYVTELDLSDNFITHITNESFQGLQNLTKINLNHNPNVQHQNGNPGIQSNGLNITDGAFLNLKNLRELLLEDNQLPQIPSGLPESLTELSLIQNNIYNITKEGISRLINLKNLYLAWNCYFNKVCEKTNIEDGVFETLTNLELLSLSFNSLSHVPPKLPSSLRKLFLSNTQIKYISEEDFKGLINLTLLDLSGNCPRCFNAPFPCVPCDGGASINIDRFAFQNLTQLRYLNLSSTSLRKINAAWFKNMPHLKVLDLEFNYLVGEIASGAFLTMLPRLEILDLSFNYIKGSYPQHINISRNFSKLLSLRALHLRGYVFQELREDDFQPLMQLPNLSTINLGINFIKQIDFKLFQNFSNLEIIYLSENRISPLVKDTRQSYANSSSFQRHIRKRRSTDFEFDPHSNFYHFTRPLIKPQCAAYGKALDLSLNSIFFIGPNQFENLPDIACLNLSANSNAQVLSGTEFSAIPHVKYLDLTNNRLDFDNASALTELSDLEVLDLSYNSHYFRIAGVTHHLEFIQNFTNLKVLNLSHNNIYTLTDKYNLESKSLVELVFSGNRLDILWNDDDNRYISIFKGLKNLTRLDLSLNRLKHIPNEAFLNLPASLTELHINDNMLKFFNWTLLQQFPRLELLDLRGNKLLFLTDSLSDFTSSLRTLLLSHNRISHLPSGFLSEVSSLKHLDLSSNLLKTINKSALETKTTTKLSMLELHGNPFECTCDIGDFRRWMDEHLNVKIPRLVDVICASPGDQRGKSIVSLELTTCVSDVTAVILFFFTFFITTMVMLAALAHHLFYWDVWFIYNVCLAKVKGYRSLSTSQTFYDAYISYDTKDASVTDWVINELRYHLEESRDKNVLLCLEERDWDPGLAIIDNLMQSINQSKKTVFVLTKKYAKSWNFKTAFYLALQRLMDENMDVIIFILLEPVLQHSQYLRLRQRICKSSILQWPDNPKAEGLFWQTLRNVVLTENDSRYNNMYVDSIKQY
Protocol: TLR7/8/9 Inhibition Reporter Assays
HEK-Blue™-cells (Invivogen) overexpressing human TLR7, TLR8 or TLR9 receptors were used for screening inhibitors of these receptors using an inducible SEAP (secreted embryonic alkaline phosphatase) reporter gene under the control of the IFN-β minimal promoter fused to five NF-κB and AP-1-binding sites. Briefly, cells are seeded into Greiner 384 well plates (15000 cells per well for TLR7, 20,000 for TLR8 and 25,000 for TLR9) and then treated with test compounds in DMSO to yield a final dose response concentration range of 0.05 nM-50 μM. After a 30 minute compound pre-treatment at room temperature, the cells are then stimulated with a TLR7 ligand (gardiquimod at a final concentration of 7.5 μM), TLR8 ligand (R848 at a final concentration of 15.9 μM) or TLR9 ligand (ODN2006 at a final concentration of 5 nM) to activate NF-κB and AP-1 which induce the production of SEAP. After a 22 hour incubation at 37° C., 5% CO2, SEAP levels are determined with the addition of HEK-Blue™ Detection reagent (Invivogen), a cell culture medium that allows for detection of SEAP, according to manufacturer's specifications. The percent inhibition is determined as the % reduction in the HEK-Blue signal present in wells treated with agonist plus DMSO alone compared to wells treated with a known inhibitor.

human TLR9 = molecular target: T3, human TLR9 (Homo sapiens, UniProt Q9NR96); assay: TLR9 inhibition reporter assay (HEK-Blue SEAP reporter); details: HEK-Blue cells overexpressing human TLR9; ODN2006 5 nM; 22 hour incubation
T3 construct: host or cells: HEK-Blue cells
T3 sequence (Q9NR96 26-1032): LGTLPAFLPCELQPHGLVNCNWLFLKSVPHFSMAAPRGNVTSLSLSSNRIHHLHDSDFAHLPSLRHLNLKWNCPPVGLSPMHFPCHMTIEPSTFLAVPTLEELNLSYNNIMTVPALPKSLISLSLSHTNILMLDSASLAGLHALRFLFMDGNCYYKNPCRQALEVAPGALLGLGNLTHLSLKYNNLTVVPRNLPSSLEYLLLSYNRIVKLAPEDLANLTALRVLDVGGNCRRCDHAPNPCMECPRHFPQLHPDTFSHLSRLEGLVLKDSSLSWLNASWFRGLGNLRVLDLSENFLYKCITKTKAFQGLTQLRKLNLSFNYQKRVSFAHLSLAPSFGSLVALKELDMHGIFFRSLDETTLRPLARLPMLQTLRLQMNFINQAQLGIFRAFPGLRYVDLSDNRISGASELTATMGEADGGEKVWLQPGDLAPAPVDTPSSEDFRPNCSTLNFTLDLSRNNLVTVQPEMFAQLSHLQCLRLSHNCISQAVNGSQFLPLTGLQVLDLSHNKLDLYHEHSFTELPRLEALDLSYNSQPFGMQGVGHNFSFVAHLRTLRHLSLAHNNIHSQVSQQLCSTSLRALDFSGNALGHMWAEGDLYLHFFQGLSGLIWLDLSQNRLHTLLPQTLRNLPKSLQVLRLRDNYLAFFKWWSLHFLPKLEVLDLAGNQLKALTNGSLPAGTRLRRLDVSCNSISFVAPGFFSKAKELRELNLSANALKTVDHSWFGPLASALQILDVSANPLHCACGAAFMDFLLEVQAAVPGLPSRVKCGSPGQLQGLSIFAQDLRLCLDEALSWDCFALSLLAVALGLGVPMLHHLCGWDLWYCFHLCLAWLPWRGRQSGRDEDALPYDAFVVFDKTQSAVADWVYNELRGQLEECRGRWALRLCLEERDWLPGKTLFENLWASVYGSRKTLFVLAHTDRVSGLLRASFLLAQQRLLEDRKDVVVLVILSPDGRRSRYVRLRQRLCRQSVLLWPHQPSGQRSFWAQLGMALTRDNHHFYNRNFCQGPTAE
Procedure, shortened: as §1

Structure (SMILES) | IC50 (human TLR7) [µM] | IC50 (human TLR8) [µM] | IC50 (human TLR9) [µM]
COc1ccc(-c2[nH]c3ccc(N(C)CC4CCCN4C)cc3c2C(C)C)cc1OC (stereo not drawn) [Example 104, 2-(3,4-dimethoxyphenyl)-3-isopropyl-N-methyl-N-((1-methylpyrrolidin-2-yl)methyl)-1H-indol-5-amine] | 1.31 | 0.0097 | 6.82
COc1ccc(-c2[nH]c3ccc(N4CCC(C5CCN(Cc6cccn6C)CC5)CC4)cc3c2C(C)C)cc1OC [Example 96, 2-(3,4-dimethoxyphenyl)-3-isopropyl-5-(1′-((1-methyl-1H-pyrrol-2-yl)methyl)-[4,4′-bipiperidin]-1-yl)-1H-indole] | 0.436 | 1.05 | 2.84
CCc1c(-c2ccc(OC)c(OC)c2)[nH]c2ccc(N3CCC(OC4CCN(C)CC4)CC3)cc12 [Example 134, 2-(3,4-dimethoxyphenyl)-3-ethyl-5-(4-((1-methylpiperidin-4-yl)oxy)piperidin-1-yl)-1H-indole] | 0.054 | 0.094 | 0.462
COc1ccc(-c2[nH]c3ccc(NC(=O)C4CCNC4)cc3c2C(C)C)cc1OC (stereo not drawn) [Example 13, N-(2-(3,4-dimethoxyphenyl)-3-isopropyl-1H-indol-5-yl) pyrrolidine-3-carboxamide] | 0.051 | 0.0084 | 0.55
COc1ccc(-c2[nH]c3ccc(N4CCC(CCN(C)C)CC4)cc3c2C(C)C)cc1OC [Example 71, 2-(1-(2-(3,4-dimethoxyphenyl)-3-isopropyl-1H-indol-5-yl)piperidin-4-yl)-N,N-dimethylethan-1-amine] |  | > 50 | 0.608
CCN1CCC(N2CCN(c3ccc4[nH]c(-c5ccc(OC)c(OC)c5)c(C)c4c3)CC2)CC1 [Example 155, 2-(3,4-dimethoxyphenyl)-5-(4-(1-ethylpiperidin-4-yl)piperazin-1-yl)-3-methyl-1H-indole] |  | > 50 | 0.451
COc1ccc(-c2[nH]c3ccc(N4CCC(N5CCN(Cc6ccc(C)cc6)CC5)CC4)cc3c2C(C)C)cc1OC [Example 101, 2-(3,4-dimethoxyphenyl)-3-isopropyl-5-(4-(4-(4-methylbenzyl)piperazin-1-yl)piperidin-1-yl)-1H-indole] | 1.35 |  | 1.9
COc1ccc(-c2[nH]c3ccc(NC(=O)[C@@H](N)CC(N)=O)cc3c2C(C)C)cc1OC [Example 18, (S)-2-amino-N1-(2-(3,4-dimethoxyphenyl)-3-isopropyl-1H-indol-5-yl)succinamide] | 0.28 | 0.089 | 
CC(C)c1c(-c2ccnc3[nH]ncc23)[nH]c2ccc(N3CCN(C4CCN(C(C)C)CC4)CC3)cc12 [Example 167, 4-(3-isopropyl-5-(4-(1-isopropylpiperidin-4-yl)piperazin-1-yl)-1H-indol-2-yl)-1H-pyrazolo[3,4-b]pyridine] | 5.18 |  | 0.411
COc1ccc(-c2[nH]c3ccc(NC4CCC(N5CCN(C6CCCC6)CC5)CC4)cc3c2C(C)C)cc1OC (stereo not drawn) [Example 57, N-(4-(4-cyclopentylpiperazin-1-yl)cyclohexyl)-2-(3,4-dimethoxyphenyl)-3-isopropyl-1H-indol-5-amine] | 0.353 |  | 0.46
COc1ccc(-c2[nH]c3ccc(N4CCC(N5CCC(N(C)C)CC5)CC4)cc3c2C(C)C)cc1OC [Example 83, 1′-(2-(3,4-dimethoxyphenyl)-3-isopropyl-1H-indol-5-yl)-N,N-dimethyl-[1,4′-bipiperidin]-4-amine] | 0.287 |  | 1.29
COc1ccc(-c2[nH]c3ccc(NC(=O)[C@H](N)CC(N)=O)cc3c2C(C)C)cc1OC [Example 19, (R)-2-amino-N1-(2-(3,4-dimethoxyphenyl)-3-isopropyl-1H-indol-5-yl)succinamide] | 0.441 | 0.097 | 
CCc1c(-c2ccnc(C)c2)[nH]c2ccc(N3CCC(OC4CCN(C(C)C)CC4)CC3)cc12 [Example 182, 3-ethyl-5-(4-((1-isopropylpiperidin-4-yl)oxy)piperidin-1-yl)-2-(2-methylpyridin-4-yl)-1H-indole] |  | 47.9 | 0.658
